Measured values: US20250074897A1, “PYRIDAZINONES AS PARP7 INHIBITORS” (Ribon Therapeutics, Inc., priority 2019, published 2025)

Target: T1, PARP7 (TIPARP) (Homo sapiens, UniProt Q7Z3E1)
T1 sequence (Q7Z3E1 1-657): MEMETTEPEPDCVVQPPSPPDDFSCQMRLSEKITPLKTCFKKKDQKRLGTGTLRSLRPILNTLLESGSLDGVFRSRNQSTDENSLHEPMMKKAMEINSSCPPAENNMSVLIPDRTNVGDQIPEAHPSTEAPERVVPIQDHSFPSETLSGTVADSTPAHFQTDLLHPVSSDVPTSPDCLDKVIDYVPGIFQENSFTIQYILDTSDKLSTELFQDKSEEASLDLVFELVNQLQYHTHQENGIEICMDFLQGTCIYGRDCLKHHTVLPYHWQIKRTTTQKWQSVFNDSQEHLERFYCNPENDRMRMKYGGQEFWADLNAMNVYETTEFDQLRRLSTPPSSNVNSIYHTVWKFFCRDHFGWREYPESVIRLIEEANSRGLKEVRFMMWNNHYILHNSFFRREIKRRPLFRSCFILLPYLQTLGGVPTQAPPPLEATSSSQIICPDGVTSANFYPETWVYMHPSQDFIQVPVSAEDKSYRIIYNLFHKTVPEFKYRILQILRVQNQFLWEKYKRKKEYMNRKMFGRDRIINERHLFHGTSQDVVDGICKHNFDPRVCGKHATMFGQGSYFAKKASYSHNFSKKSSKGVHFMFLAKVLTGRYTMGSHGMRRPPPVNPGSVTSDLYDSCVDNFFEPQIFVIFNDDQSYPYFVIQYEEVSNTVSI
Assay: Enzymatic assay for inhibition of PARP7: TR-FRET displacement of biotinylated Probe A from the TIPARP active site
Format: binding
Details: 6 nM TIPARP, 2 nM Probe A, 25° C., 30 min incubation with test compound
Experimental: Enzymatic Assay for Inhibition of PARP7
Displacement of Probe A, a biotinylated probe binding to the TIPARP active site, was measured using a time-resolved fluorescence energy transfer (TR-FRET) assay. 20 nL of a dose response curve of each test compound was spotted in black 384-well polystyrene proxiplates (Perkin Elmer) using a Mosquito (TTP Labtech). Reactions were performed in a 8 μL volume by adding 6 μL of TIPARP and Probe A in assay buffer (20 mM HEPES pH=8, 100 mM NaCl, 0.1% bovine serum albumin, 2 mM DTT and 0.002% Tween20), incubating with test compound at 25° C. for 30 min, then adding 2 μL of ULight-anti 6xHis and LANCE Eu-W1024 labeled streptavidin (Perkin Elmer). The final concentrations of TIPARP and Probe A were 6 nM and 2 nM, respectively. The final concentration of ULight-anti 6xHis and LANCE Eu-W1024 labeled streptavidin were 4 nM and 0.25 nM, respectively. Reactions were incubated at 25° C. for an additional 30 min, then read on an Envision platereader equipped with a LANCE/DELFIA top mirror (Perkin Elmer) using excitation of 320 nm and emission of 615 nm and […] with a 90 μs delay. The ratio of the 665/615 nm emission were calculated for each well to determine the amount of complex of TIPARP and Probe A in each well. Control wells containing a negative control of 0.25% DMSO vehicle or a positive control of 100 μM 5-(5-(piperidin-4-yloxy)isoindolin-2-yl)-4-(trifluoromethyl)pyridazin-3(2H)-one were used to calculate the % inhibition as described below:
where TRFempd is the TR-FRET ratio from the compound treated well, TRFmin is the TR-FRET ratio from the 5-(5-(piperidin-4-yloxy)isoindolin-2-yl)-4-(trifluoromethyl)pyridazin-3(2H)-one-treated positive control well and TRFmax is the TR-FRET ratio from the DMSO-treated negative control well.
The % inhibition values were plotted as a function of compound concentration and the following 4-parameter fit was applied to derive the IC50 values:
where top and bottom are normally allowed to float, but may be fixed at 100 or 0 respectively in a 3-parameter fit. The Hill Coefficient is normally allowed to float but may also be fixed at 1 in a 3-parameter fit. Y is the % inhibition and X is the compound concentration.

IC50, < 100 nM:
C[C@@H](COC[C@@H](O)C(=O)N1CCN(c2ncc(C(F)F)cn2)CC1)Nc1cn[nH]c(=O)c1C(F)(F)F [Example 4A, 5-(((S)-1-((R)-3-(4-(5-(difluoromethyl)pyrimidin-2-yl)piperazin-1-yl)-2-hydroxy-3-oxopropoxy)propan-2-yl)amino)-4-(trifluoromethyl)pyridazin-3(2H)-one]
C[C@@H](COC[C@@H](O)C(=O)N1CCN(c2ncc(C(F)(F)F)cn2)CC1)Nc1cn[nH]c(=O)c1C(F)(F)F (single isomer, unassigned) [Example 1A]
C[C@@H](COC[C@@H](O)C(=O)N1CCN(c2ncc(C(F)(F)F)s2)CC1)Nc1cn[nH]c(=O)c1C(F)(F)F [Example 3A, 5-((S)-1-((R)-2-hydroxy-3-oxo-3-(4-(5-(trifluoromethyl)thiazol-2-yl)piperazin-1-yl)propoxy)propan-2-ylamino)-4-(trifluoromethyl)pyridazin-3(2H)-one]
O=C([C@H](O)COC[C@@H]1c2ccccc2CN1c1cn[nH]c(=O)c1C(F)(F)F)N1CCN(c2ncc(C(F)(F)F)cn2)CC1 (single isomer, unassigned) [Example 17A]
O=C([C@@H](O)COC[C@H](COC(F)(F)F)Nc1cn[nH]c(=O)c1C(F)(F)F)N1CCN(c2ncc(C(F)(F)F)cn2)CC1 [Example 16B, 5-(((R)-1-((S)-2-hydroxy-3-oxo-3-(4-(5-(trifluoromethyl)pyrimidin-2-yl)piperazin-1-yl)propoxy)-3-(trifluoromethoxy)propan-2-yl)amino)-4-(trifluoromethyl)pyridazin-3(2H)-one]
C[C@@H](COC[C@H](O)C(=O)N1CCN(c2cnc(C(F)(F)F)cn2)CC1)Oc1cn[nH]c(=O)c1C(F)(F)F [Example 8B, 5-(((S)-1-((S)-2-hydroxy-3-oxo-3-(4-(5-(trifluoromethyl)pyrazin-2-yl)piperazin-1-yl)propoxy)propan-2-yl)oxy)-4-(trifluoromethyl)pyridazin-3(2H)-one]
O=C([C@@H](O)COC[C@@H]1c2ccccc2CN1c1cn[nH]c(=O)c1C(F)(F)F)N1CCN(c2ncc(C(F)(F)F)cn2)CC1 (single isomer, unassigned) [Example 17C]
C[C@@H](COC[C@@H](O)C(=O)N1CCN(c2cnc(C(F)(F)F)cn2)CC1)Nc1cn[nH]c(=O)c1C(F)(F)F [Example 2A, 5-(((S)-1-((R)-2-hydroxy-3-oxo-3-(4-(5-(trifluoromethyl)pyrazin-2-yl)piperazin-1-yl)propoxy)propan-2-yl)amino)-4-(trifluoromethyl)pyridazin-3(2H)-one]
C[C@@H](COC[C@H](O)C(=O)N1CCN(c2ncc(Cl)cn2)CC1)Nc1cn[nH]c(=O)c1C(F)(F)F (single isomer, unassigned) [Example 6B]
C[C@@H](COC[C@H](O)C(=O)N1CCN(c2ncc(C(F)(F)F)s2)CC1)Nc1cn[nH]c(=O)c1C(F)(F)F [Example 3B, 5-((S)-1-((S)-2-hydroxy-3-oxo-3-(4-(5-(trifluoromethyl)thiazol-2-yl)piperazin-1-yl)propoxy)propan-2-ylamino)-4-(trifluoromethyl)pyridazin-3(2H)-one]
C[C@@H](COC[C@H](O)C(=O)N1CCN(c2ncc(C(F)(F)F)cn2)CC1)Nc1cn[nH]c(=O)c1C(F)(F)F (single isomer, unassigned) [Example 1B]
[2H]C1([2H])N(C(=O)[C@H](O)COC[C@H](C)Nc2cn[nH]c(=O)c2C(F)(F)F)C([2H])([2H])C([2H])([2H])N(c2ncc(C(F)(F)F)cn2)C1([2H])[2H] (single isomer, unassigned) [Example 13A]
C[C@@H](COCC(C)(O)C(=O)N1CCN(c2ncc(C(F)(F)F)cn2)CC1)Nc1cn[nH]c(=O)c1C(F)(F)F (stereo partly drawn) [Example 5, 5-(((2S)-1-(2-hydroxy-2-methyl-3-oxo-3-(4-(5-(trifluoromethyl)pyrimidin-2-yl)piperazin-1-yl)propoxy)propan-2-yl)amino)-4-(trifluoromethyl)pyridazin-3(2H)-one]
C[C@@H](COC[C@H](O)C(=O)N1CCN(c2cnc(C(F)(F)F)cn2)CC1)Nc1cn[nH]c(=O)c1C(F)(F)F [Example 2B, 5-(((S)-1-((S)-2-hydroxy-3-oxo-3-(4-(5-(trifluoromethyl)pyrazin-2-yl)piperazin-1-yl)propoxy)propan-2-yl)amino)-4-(trifluoromethyl)pyridazin-3(2H)-one]
O=C([C@H](O)COC[C@H](COC(F)(F)F)Nc1cn[nH]c(=O)c1C(F)(F)F)N1CCN(c2ncc(C(F)(F)F)cn2)CC1 [Example 16A, 5-(((R)-1-((R)-2-hydroxy-3-oxo-3-(4-(5-(trifluoromethyl)pyrimidin-2-yl)piperazin-1-yl)propoxy)-3-(trifluoromethoxy)propan-2-yl)amino)-4-(trifluoromethyl)pyridazin-3(2H)-one]
COC[C@@H](COCC(O)C(=O)N1CCN(c2ncc(C(F)(F)F)cn2)CC1)Nc1cn[nH]c(=O)c1C(F)(F)F (stereo partly drawn) [Example 14, 5-(((2S)-1-(2-hydroxy-3-oxo-3-(4-(5-(trifluoromethyl)pyrimidin-2-yl)piperazin-1-yl)propoxy)-3-methoxypropan-2-yl)amino)-4-(trifluoromethyl)pyridazin-3(2H)-one]
C[C@@H](COC[C@@H](O)C(=O)N1CCN(c2ccc(C#N)cn2)CC1)Oc1cn[nH]c(=O)c1C(F)(F)F [Example 10A, 6-(4-((R)-2-hydroxy-3-((S)-2-((6-oxo-5-(trifluoromethyl)-1,6-dihydropyridazin-4-yl)oxy)propoxy)propanoyl)piperazin-1-yl)nicotinonitrile]
C[C@@H](COC[C@H](O)C(=O)N1CCN(c2ncc(C(F)F)cn2)CC1)Nc1cn[nH]c(=O)c1C(F)(F)F [Example 4B, 5-(((S)-1-((S)-3-(4-(5-(difluoromethyl)pyrimidin-2-yl)piperazin-1-yl)-2-hydroxy-3-oxopropoxy)propan-2-yl)amino)-4-(trifluoromethyl)pyridazin-3(2H)-one]
[2H]C1([2H])N(C(=O)[C@@H](O)COC[C@H](C)Nc2cn[nH]c(=O)c2C(F)(F)F)C([2H])([2H])C([2H])([2H])N(c2ncc(C(F)(F)F)cn2)C1([2H])[2H] (single isomer, unassigned) [Example 13B]
C[C@@H](COC[C@@H](O)C(=O)N1CCN(c2ncc(Cl)cn2)CC1)Nc1cn[nH]c(=O)c1C(F)(F)F (single isomer, unassigned) [Example 6A]
O=C([C@@H](O)COC[C@H]1c2ccccc2CN1c1cn[nH]c(=O)c1C(F)(F)F)N1CCN(c2ncc(C(F)(F)F)cn2)CC1 (single isomer, unassigned) [Example 17D]
C[C@@H](COC[C@@H](O)C(=O)N1CCN(c2cnc(C(F)(F)F)cn2)CC1)Oc1cn[nH]c(=O)c1C(F)(F)F [Example 8A, 5-(((S)-1-((R)-2-hydroxy-3-oxo-3-(4-(5-(trifluoromethyl)pyrazin-2-yl)piperazin-1-yl)propoxy)propan-2-yl)oxy)-4-(trifluoromethyl)pyridazin-3(2H)-one]
C[C@@H](COC[C@H](O)C(=O)N1CCN(c2ncc(C(F)(F)F)cn2)CC1)Oc1cn[nH]c(=O)c1Br (single isomer, unassigned) [Example 12B]
